Read-outs that look alike come from different tables or passages of the source. One block for each molecule: values may come before it.
Assays:
heparinase II [1] = molecular target: T1, heparinase II (Pedobacter heparinus, UniProt C6XZB6); experiment: DEPC inactivation of heparinase II and reactivation with hydroxylamine; format: biochemical, Flavobacterium heparinum; settings: for kinact/KI: read-out: second-order rate constant of inactivation (converted); for initial activity recovered by DEPC-modified enzyme: 500 mM hydroxylamine
T1 sequence (C6XZB6 26-772): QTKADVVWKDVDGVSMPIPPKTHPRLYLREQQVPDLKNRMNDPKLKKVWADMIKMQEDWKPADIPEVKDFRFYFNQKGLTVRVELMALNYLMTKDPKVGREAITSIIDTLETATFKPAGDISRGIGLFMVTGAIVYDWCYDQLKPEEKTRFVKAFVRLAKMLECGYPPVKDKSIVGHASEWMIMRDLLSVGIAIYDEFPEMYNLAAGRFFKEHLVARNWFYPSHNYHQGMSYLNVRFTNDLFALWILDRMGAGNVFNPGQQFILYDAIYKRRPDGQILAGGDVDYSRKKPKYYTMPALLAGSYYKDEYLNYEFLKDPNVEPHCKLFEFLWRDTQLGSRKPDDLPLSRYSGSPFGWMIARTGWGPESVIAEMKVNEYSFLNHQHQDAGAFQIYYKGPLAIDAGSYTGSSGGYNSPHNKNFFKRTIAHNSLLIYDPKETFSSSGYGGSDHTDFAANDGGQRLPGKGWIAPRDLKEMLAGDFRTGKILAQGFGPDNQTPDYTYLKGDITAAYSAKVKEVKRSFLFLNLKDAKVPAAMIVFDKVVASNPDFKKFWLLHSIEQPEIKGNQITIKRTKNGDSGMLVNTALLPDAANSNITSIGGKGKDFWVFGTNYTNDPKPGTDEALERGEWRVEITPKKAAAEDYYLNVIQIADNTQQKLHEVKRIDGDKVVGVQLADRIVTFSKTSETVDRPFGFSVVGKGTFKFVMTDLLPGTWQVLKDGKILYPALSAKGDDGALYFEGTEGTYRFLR

heparinase II [2] = molecular target: T1, heparinase II; experiment: pCMB modification and inactivation of heparinase II; format: biochemical, Flavobacterium heparinum
From the text: (§1) Heparinase II Activity Assay. Native heparinase II from Flavobacterium heparinum, was purified as described previously (Godavarti, R., and Sasisekharan, R (1996c) Biochem. Biophys. Res. Comm. 229, 770-777). The UV 232 nm assay to quantify native heparinase II enzymatic activity was similar to that reported for heparinase I (Bernstein, H., Yang, V. C., Cooney, C. L., Langer, R. (1988) Meth. Enzym. 137, 515-29). Briefly, the course of the reaction is monitored by measuring the increase in absorbance at 232 nm as a function of time under saturating substrate concentrations. With heparin as the substrate, the reaction was carried out at a concentration of 4 mg/ml in 50 mM sodium phosphate buffer, pH 7.3. With 2 mg/ml heparan sulfate, the reaction was measured in 50 mM sodium phosphate buffer, pH 6.9 (Sasisekharan, R., Moses, M. A., Nugent, M. A., Cooney, C. L., Langer, R. (1994) Proc. Natl. Acad. Sci., USA 91, 1524-1528). The temperature for all enzymatic activity measurements was kept constant at 35° C.
pCMB Modification Studies. […]. A control reaction mixture containing vehicle alone was run in tandem. At fixed time intervals, aliquots were withdrawn for the UV 232 nm enzyme activity assay.
(B) Reactivation of pCMB—modified heparinase II with DTT. Heparinase II (50 μg/ml) was incubated with 5 μM pCMB for 4 minutes and an aliquot was withdrawn to determine the fractional activity retained. DTT (10 mM) was then immediately added to the reaction mixture and to the control, which contained no pCMB. The mixtures were incubated at 4° C. Heparinase II activity was measured every half hour.
(C) Effect of salt on the inactivation of heparinase II by pCMB. Heparinase II was incubated with 5 μM pCMB in 50 mM sodium phosphate buffer, pH 7.0, with different salt concentrations (30, 60, 110, 180, 300, and 500 mM NaCl). A control mixture, which contained no additional salt, was also incubated with pCMB.
(D) Substrate protection of heparinase II against pCMB modification. Heparinase II (50 μg/ml) was preincubated with either 4 mg/ml heparin or 2 mg/ml heparan sulfate for 30 minutes prior to the addition of 5 μM pCMB and then the time course of inactivation was determined with the heparinase II activity assay.
(E) Quantification of pCMB—modified residues of heparinase II. Quantification of pCMB-modified residues of heparinase II was determined by difference spectra. […] The change in absorbance at 250 nm was monitored every 30 seconds for 10 minutes. The number of modified residues was determined using ∈=7,600 M^−1 cm^−1 (Boyer, P. D. (1952) J. Am. Chem. Soc. 76, 4331-4337). Heparinase II activity assays were completed under identical conditions with heparin as the substrate.
[…]. Less than 2% of total heparinase II enzymatic activity remained after this time interval. […]. Modified heparinase II was separated and concentrated. pCMB was removed via addition of DTT. [^3H]NEM was added to the reaction mixture; unreacted tritium was separated by RPHPLC and heparinase II was digested with Lys-C.

[3] = Heparinase I activity as a function of calcium concentration (K0.5, calcium dependence); format: biochemical
Method: (§2) Heparinase I Activity Assays: The UV 232 nm assay was used as described in Example 1. When measuring the enzyme activity as a function of heparin concentration, heparin concentrations varied from 0 to 4 mg/ml at a fixed calcium concentration of 5 mM (100 mM MOPS buffer/5 mM calcium acetate, pH 7.0). The data was then fit to an non-linear equation to determine Kcat and Km of heparinases I. Heparinase mutant activity was also investigated as a function of calcium concentration ranging from 0 to 10 mM. […] Activity is expressed as IU-μmol product formed/min using ∈=−3800-M^−1CM^−1.

[4] = Heparinase I UV 232 nm activity assay as a function of heparin concentration (Kcat, Km); format: biochemical, porcine; settings: for Kcat / Km: heparin 0 to 4 mg/ml, 5 mM calcium acetate, pH 7.0; for Kcat: 100 mM MOPS
From the text: as §1
Heparinase I Activity Assay. The UV 232 nm assay to quantify heparinase I enzymatic activity was similar to that described in Example 1. With heparin as the substrate, the reaction was carried out at a concentration of 4 mg/ml in 100 mM MOPS, 5 mM calcium acetate, pH 7.0. The temperature for all enzymatic activity measurements was kept constant at 30° C. For the inactivation kinetic profiles, activity was measured as outlined above at precise time points.
as §2

[5] = Heparin-POROS affinity chromatography; format: binding; settings: salt concentration at which enzyme elutes from heparin-POROS column; 10 mM Tris, 1 mM EDTA pH 7.0
Method: Heparin-POROS chromatography: About 30-40 μg of -L r-heparinase I and the various mutant enzymes were injected into a heparin POROS (4.6 mm×100) column (PerSeptive BioSystems, Framingham, Mass.) connected to BioCAD system (PerSeptive BioSystems). Proteins were eluted using a linear gradient of […] NaCl in 10 min (10 mM Tris, 1 mM EDTA pH 7.0) and monitored at 210 nm. EDTA was added to chelate any calcium ions that may be present in the buffers.

[6] = Fluorescence competition for calcium with probe rhod-5N; settings: apparent dissociation constant of rhod-5N for calcium with 3 μM enzyme; lower Kd′ means less binding of calcium by heparinase I
Method: Fluorescence Competition. To determine the effect of mutations in CB-1 and CB-2 on the ability of heparinase I to bind calcium, mutants with a dramatic drop in activity were tested for their ability to bind calcium. To accomplish this, we examined the ability of heparinase I and mutants to compete for free calcium with the calcium-chelating fluorescence probe rhod-5N. The fluorescence probe rhod-5N was dissolved and diluted in buffer A (10 mM MOPS and 100 mM KCl, pH 6.5). Buffer A and the water used in the study were run through a Chelex Resin column to remove trace amounts of calcium. In the absence of calcium, rhod-5N is not fluorescent, however upon binding calcium rhod-5N is fluorescent with an emission λmax of 576 nm. Before titration, rhod-5N and heparinase I were added to a quartz cuvette such that the final concentration of rhod-5N in the cuvette was 0.3 μM and heparinase I is 3 μM. To this solution was added aliquots of a calcium solution (20 mM) which had been previously equilibrated with 0.3 μM rhod-5N and 3 μM heparinase I. The stock was added such that the calcium concentration in the cuvette was 50, 100, 200, 500, 1000, 5000 μM. After allowing the solution to come to equilibrium, the sample was scanned from 560 nm to 600 nm with the excitation wavelength fixed at […]. The plot of I/Imax versus [Ca^++] was fitted to a non-linear equation to determine the apparent Kd (Kd′) value. Thus, Kd′ values represent the apparent dissociation constants for the fluorescence probe rhod-5N. Control samples without heparinase I were included in the study.

[7] = calcium concentration at which half of the maximum enzyme activity was observed, calcium 0 to 10 mM, Table 4 first K0.5 column

Molecule: CCOC(=O)OC(=O)OCC [DEPC, diethylpyrocarbonate]
loss of heparinase II enzymatic activity (heparinase II [1]; 2 mM DEPC, 10 minutes, towards heparin and heparan sulfate): 90%
number of histidines modified (heparinase II [1]; 2 mM DEPC, ten minutes, pH 7.0): roughly three
kinact/KI (heparinase II [1]; heparan sulfate as the substrate): 4 M⁻¹ s⁻¹
kinact/KI (heparinase II [1]; heparin as the substrate): 2.67 M⁻¹ s⁻¹

Molecule: NO [Hydroxylamine]
initial activity recovered by DEPC-modified enzyme (heparinase II [1]; 8 hours, pH 7.0): about 90%
initial activity recovered by DEPC-modified enzyme (heparinase II [1]; approximately 1.5 hours, pH 7.0, after inactivation to 50%): about 80%
activity restored after DEPC modification (heparinase II [1]; pH 8): over 70%

Molecule: O=C(O)c1cc[c]([Hg][Cl])cc1 [pCMB, p(chloromercuri)benzoate]
time to complete inactivation of heparinase II (heparinase II [2]; 10 μM): ≤ 15 min
loss of activity (heparinase II [2]; 20 μM pCMB): 98%
number of cysteines modified (heparinase II [2]; 20 μM pCMB): 1.06 cysteines
first-order rate constant of inactivation (heparinase II [2]; 500 mM salt): 0.06 min⁻¹
drop of first order rate constant of inactivation (heparinase II [2]; between 0 and 100 mM NaCl, 5 μM pCMB): 2 fold
decrease of first order rate constant of inactivation (heparinase II [2]; between 0 and 300 mM NaCl, 5 μM pCMB): more than 4 fold
k, first-order rate constant of inactivation (heparinase II [2]; pH 5.0): 0.16 min⁻¹
k, first-order rate constant of inactivation (heparinase II [2]; pH 6.0): 0.14 min⁻¹
k, first-order rate constant of inactivation (heparinase II [2]; pH 7.0): 0.21 min⁻¹
second-order rate constant for the inactivation (heparinase II [2]; pH 7.0, 4° C.): 667 M⁻¹ s⁻¹
k, first-order rate constant of inactivation (heparinase II [2]; pH 8.0): 0.24 min⁻¹
total heparinase II enzymatic activity remaining (heparinase II [2]; stoichiometric amount of pCMB, 15 minutes): Less than 2%
pCMB inactivation (Table 1 value) (heparinase II [2]; substrate heparan sulfate, protection reagent heparan sulfate): 0.09
pCMB inactivation (Table 1 value) (heparinase II [2]; substrate heparan sulfate, protection reagent heparin): 0.16
pCMB inactivation (Table 1 value) (heparinase II [2]; substrate heparan sulfate, protection reagent none): 0.21
pCMB inactivation (Table 1 value) (heparinase II [2]; substrate heparin, protection reagent heparan sulfate): 0.10
pCMB inactivation (Table 1 value) (heparinase II [2]; substrate heparin, protection reagent heparin): 0.16
pCMB inactivation (Table 1 value) (heparinase II [2]; substrate heparin, protection reagent none, 5 μM pCMB): 0.22

Kd [6]: 116 µM
B1: D212A/G213A/T216A: heparinase I CB-1 triple mutant (protein, UniProt Q05819 22-384, looked up, variant D212A G213A T216A)
Heparin lyase I: QQKKSGNIPYRVNVQADSAKQKAIIDNKWVAVGINKPYALQYDDKLRFNGKPSYRFELKAEDNSLEGYAAGETKGRTELSYSYATTNDFKKFPPSVYQNAQKLKTVYHYGKGICEQGSSRSYTFSVYIPSSFPDNATTIFAQWHGAPSRTLVATPEGEIKTLSIEEFLALYDRMIFKKNIAHDKVEKKDKAAKIAYVAGKPNGWKVEQGGYPTLAFGFSKGYFYIKANSDRQWLTDKADRNNANPENSEVMKPYSSEYKTSTIAYKMPFAQFPKDCWITFDVAIDWTKYGKEANTILKPGKLDVMMTYTKNKKPQKAHIVNQQEILIGRNDDDGYYFKFGIYRVGNSTVPVTYNLSGYSETAR
K0.5 ([3]; Table 4 second K0.5 column): 730 µM
K0.5 [3, 7]: 730 µM
decrease in Kcat compared to wild-type r-heparinase I [4]: ~5 fold
Kcat [4]: 20 s⁻¹
Km [4]: 3.16 µM
NaCl [5]: 495 mM

Kd [6]: 175 µM
B2: E381A: heparinase I CB-2 mutant, glutamate 381 changed to alanine (protein, UniProt Q05819 22-384, looked up, variant E381A)
Heparin lyase I: QQKKSGNIPYRVNVQADSAKQKAIIDNKWVAVGINKPYALQYDDKLRFNGKPSYRFELKAEDNSLEGYAAGETKGRTELSYSYATTNDFKKFPPSVYQNAQKLKTVYHYGKGICEQGSSRSYTFSVYIPSSFPDNATTIFAQWHGAPSRTLVATPEGEIKTLSIEEFLALYDRMIFKKNIAHDKVEKKDKDGKITYVAGKPNGWKVEQGGYPTLAFGFSKGYFYIKANSDRQWLTDKADRNNANPENSEVMKPYSSEYKTSTIAYKMPFAQFPKDCWITFDVAIDWTKYGKEANTILKPGKLDVMMTYTKNKKPQKAHIVNQQEILIGRNDDDGYYFKFGIYRVGNSTVPVTYNLSGYSATAR
K0.5 ([3]; Table 4 second K0.5 column): 180 µM
K0.5 [3, 7]: 180 µM
decrease in Kcat compared to wild-type r-heparinase I [4]: about 10 fold
Kcat [4]: 10 s⁻¹
Km [4]: 0.52 µM
NaCl [5]: 505 mM
